According to patent US20250282771A1, “TETRAHYDROISOQUINOLINE HETEROBIFUNCTIONAL BCL-XL DEGRADERS” (Treeline Biosciences, Inc., priority 2022, published 2025):

Molecular target: T1, N-terminal HiBiT tagged BCL-XL (Homo sapiens, UniProt Q07817)
T1 construct: expressed in transfected cells; host or cells: HT-1080 (ATCC CCL-121) cells stably transduced with lentivirus pLV-UBC-N-HiBiT-BCL-XL-PGK-puro
Test: HiBiT based degradation assay
Assay type: cell-based
Details: HT1080 cells expressing N-terminal HiBiT tagged BCL-XL, BCL-XL level normalized with DMSO control
Description: Human BCL-XL protein coding open reading frame fused with N-terminal HiBiT coding sequence was synthesized from Integrated DNA Technologies (IDT). Next, N-HiBiT-BCL-XL sequence was cloned into pLV-UBC-PGK-Puro, a lentivirus plasmid purchased from Vectorbuilder, to generate pLV-UBC-N-HiBiT-BCL-XL-PGK-puro. Lentiviral particles were generated from Lenti-X™ 293T cells (Clontech) by co-transfection of pLV-UBC-N-HiBiT-BCL-XL-PGK-puro plasmids and lentiviral packaging plasmid mix (Cellecta). HT-1080 [HT1080](ATCC CCL-121) cells were infected with the lentivirus, and HT1080 cells stably integrated with the lentiviral vectors were established by incubation with […] puromycin (Thermofisher).
HT1080 cells expressing N-terminal HiBiT tagged BCL-XL were dispensed into a 384-well plate pre-spotted with compounds at varying concentrations. Three thousand cells were seeded into each well in 40 μL of RPMI 1640 media. […] After incubation, luminescence was read on a PHERAstar FSX Plate Reader (BMG). BCL-XL degradation at each indicated concentration was normalized with the DMSO control. The BCL-XL degradation curves were plotted using a four-parameter logistic model. For compounds displaying hook effects, the curve fitting was performed using the bottom point of the hook curves (i.e., the point of Ymin) as the bottom plateau to calculate EC50.

T1 sequence (Q07817 whole entry): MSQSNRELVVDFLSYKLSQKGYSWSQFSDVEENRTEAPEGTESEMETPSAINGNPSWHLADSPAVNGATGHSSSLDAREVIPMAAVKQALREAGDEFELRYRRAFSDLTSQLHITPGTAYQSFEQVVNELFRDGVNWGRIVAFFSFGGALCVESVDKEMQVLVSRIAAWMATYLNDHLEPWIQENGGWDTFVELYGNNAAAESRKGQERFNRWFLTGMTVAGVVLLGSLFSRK

| Ymin (6 h) | Ymin (24 h) | Structure (SMILES) |
| --- | --- | --- |
| C (Ymin ≥ 70%) | A (Ymin < 50%) | Cc1c(O[C@H]2CC[C@H](CCC(=O)N3CCC(c4cc5c(cc4F)C(=O)N(C4CCC(=O)NC4=O)C5=O)CC3)CC2)cccc1-c1ccc(N2CCc3cccc(C(=O)Nc4nc5ccccc5s4)c3C2)nc1C(=O)O (stereo partly drawn) [Compound 140a, 6-(8-(benzo[d]thiazol-2-ylcarbamoyl)-3,4-dihydroisoquinolin-2(1H)-yl)-3-(3-(((1r,4r)-4-(3-(4-(2-(2,6-dioxopiperidin-3-yl)-6-fluoro-1,3-dioxoisoindolin-5-yl)piperidin-1-yl)-3-oxopropyl)cyclohexyl)oxy)-2-methylphenyl)picolinic acid] |
|  | B (50% ≤ Ymin < 70%) | Cc1c(O[C@H]2CC[C@H](CCCCN3CCN(c4cc5c(cc4F)C(=O)N(C4CCC(=O)NC4=O)C5=O)CC3)CC2)cccc1-c1ccc(N2CCc3cccc(C(=O)Nc4nc5ccccc5s4)c3C2)nc1C(=O)O (stereo partly drawn) [Compound 129a, 6-(8-(benzo[d]thiazol-2-ylcarbamoyl)-3,4-dihydroisoquinolin-2(1H)-yl)-3-(3-(((1s,4r)-4-(4-(4-(2-(2,6-dioxopiperidin-3-yl)-6-fluoro-1,3-dioxoisoindolin-5-yl)piperazin-1-yl)butyl)cyclohexyl)oxy)-2-methylphenyl)picolinic acid] |
|  | B (50% ≤ Ymin < 70%) | Cc1c(O[C@H]2CC[C@H](CCCC(=O)N3CCN(c4cc5c(cc4F)C(=O)N(C4CCC(=O)NC4=O)C5=O)CC3)CC2)cccc1-c1ccc(N2CCc3cccc(C(=O)Nc4nc5ccccc5s4)c3C2)nc1C(=O)O (stereo partly drawn) [Compound 139a, 6-(8-(benzo[d]thiazol-2-ylcarbamoyl)-3,4-dihydroisoquinolin-2(1H)-yl)-3-(3-(((1s,4r)-4-(4-(4-(2-(2,6-dioxopiperidin-3-yl)-6-fluoro-1,3-dioxoisoindolin-5-yl)piperazin-1-yl)-4-oxobutyl)cyclohexyl)oxy)-2-methylphenyl)picolinic acid] |
| B (50% ≤ Ymin < 70%) | B (50% ≤ Ymin < 70%) | Cc1c(O[C@H]2CC[C@H](CCC(=O)N3CCN(c4cc5c(cc4F)C(=O)N(C4CCC(=O)NC4=O)C5=O)CC3)CC2)cccc1-c1ccc(N2CCc3cccc(C(=O)Nc4nc5ccccc5s4)c3C2)nc1C(=O)O (stereo partly drawn) [Compound 111a, 6-(8-(benzo[d]thiazol-2-ylcarbamoyl)-3,4-dihydroisoquinolin-2(1H)-yl)-3-(3-(((1r,4r)-4-(3-(4-(2-(2,6-dioxopiperidin-3-yl)-6-fluoro-1,3-dioxoisoindolin-5-yl)piperazin-1-yl)-3-oxopropyl)cyclohexyl)oxy)-2-methylphenyl)picolinic acid] |
|  | C (Ymin ≥ 70%) | Cc1c(OCC[C@@H](C)C2CCN(CC(=O)N3CCN(c4cc5c(cc4F)C(=O)N(C4CCC(=O)NC4=O)C5=O)CC3)CC2)cccc1-c1ccc(N2CCc3cccc(C(=O)Nc4nc5ccccc5s4)c3C2)nc1C(=O)O (stereo partly drawn) [Compound 130b] |

Second part, the compound before the results:

| Structure (SMILES) | Ymin (6 h) | Ymin (24 h) |
| --- | --- | --- |
| Cc1c(OCCCCCCCN2CCN(c3cc4c(cc3F)C(=O)N(C3CCC(=O)NC3=O)C4=O)CC2)cccc1-c1ccc(N2CCc3cccc(C(=O)Nc4nc5ccccc5s4)c3C2)nc1C(=O)O (stereo not drawn) [Compound 104, 6-(8-(benzo[d]thiazol-2-ylcarbamoyl)-3,4-dihydroisoquinolin-2(1H)-yl)-3-(3-((7-(4-(2-(2,6-dioxopiperidin-3-yl)-6-fluoro-1,3-dioxoisoindolin-5-yl)piperazin-1-yl)heptyl)oxy)-2-methylphenyl)picolinic acid] | B (50% ≤ Ymin < 70%) | B (50% ≤ Ymin < 70%) |
| Cc1c(OCCCCCCCCC(=O)N2CCN(c3cc4c(cc3F)C(=O)N(C3CCC(=O)NC3=O)C4=O)CC2)cccc1-c1ccc(N2CCc3cccc(C(=O)Nc4nc5ccccc5s4)c3C2)nc1C(=O)O (stereo not drawn) [Compound 109] | B (50% ≤ Ymin < 70%) |  |
| Cc1c(OCCCCCCCCCCCN2CCN(c3cc4c(cc3F)C(=O)N(C3CCC(=O)NC3=O)C4=O)CC2)cccc1-c1ccc(N2CCc3cccc(C(=O)Nc4nc5ccccc5s4)c3C2)nc1C(=O)O (stereo not drawn) [Compound 107] | B (50% ≤ Ymin < 70%) |  |
| Cc1c(OCCCC2CCN(CCN3CCN(c4cc5c(cc4F)C(=O)N(C4CCC(=O)NC4=O)C5=O)CC3)CC2)cccc1-c1ccc(N2CCc3cccc(C(=O)Nc4nc5ccccc5s4)c3C2)nc1C(=O)O (stereo not drawn) [Compound 118, 6-(8-(benzo[d]thiazol-2-ylcarbamoyl)-3,4-dihydroisoquinolin-2(1H)-yl)-3-(3-(3-(1-(2-(4-(2-(2,6-dioxopiperidin-3-yl)-6-fluoro-1,3-dioxoisoindolin-5-yl)piperazin-1-yl)ethyl)piperidin-4-yl)propoxy)-2-methylphenyl)picolinic acid] |  | A (Ymin < 50%) |
| Cc1c(Oc2ccc(CCCC(=O)N3CCN(c4cc5c(cc4F)C(=O)N(C4CCC(=O)NC4=O)C5=O)CC3)cc2)cccc1-c1ccc(N2CCc3cccc(C(=O)Nc4nc5ccccc5s4)c3C2)nc1C(=O)O (stereo not drawn) [Compound 119, 6-(8-(benzo[d]thiazol-2-ylcarbamoyl)-3,4-dihydroisoquinolin-2(1H)-yl)-3-(3-(4-(4-(4-(2-(2,6-dioxopiperidin-3-yl)-6-fluoro-1,3-dioxoisoindolin-5-yl)piperazin-1-yl)-4-oxobutyl)phenoxy)-2-methylphenyl)picolinic acid] | C (Ymin ≥ 70%) | B (50% ≤ Ymin < 70%) |
| Cc1c(OCCCCN2CCC(CN3CCN(c4cc5c(cc4F)C(=O)N(C4CCC(=O)NC4=O)C5=O)CC3)CC2)cccc1-c1ccc(N2CCc3cccc(C(=O)Nc4nc5ccccc5s4)c3C2)nc1C(=O)O (stereo not drawn) [Compound 123, 6-[8-(1,3-benzothiazol-2-ylcarbamoyl)-3,4-dihydro-1H-isoquinolin-2-yl]-3-[3-[4-[4-[[4-[2-(2,6-dioxo-3-piperidyl)-6-fluoro-1,3-dioxo-isoindolin-5-yl]piperazin-1-yl]methyl]-1-piperidyl]butoxy]-2-methyl-phenyl]pyridine-2-carboxylic acid] |  | B (50% ≤ Ymin < 70%) |
| Cc1cc(OCCCC2CCN(CCN3CCN(c4cc5c(cc4F)C(=O)N(C4CCC(=O)NC4=O)C5=O)CC3)CC2)ccc1-c1ccc(N2CCc3cccc(C(=O)Nc4nc5ccccc5s4)c3C2)nc1C(=O)O (stereo not drawn) [Compound 121] |  | A (Ymin < 50%) |
| Cc1c(OCCC2CCN(CCN3CCN(c4cc5c(cc4F)C(=O)N(C4CCC(=O)NC4=O)C5=O)CC3)CC2)cccc1-c1ccc(N2CCc3cccc(C(=O)Nc4nc5ccccc5s4)c3C2)nc1C(=O)O (stereo not drawn) [Compound 116, 6-[8-(1,3-benzothiazol-2-ylcarbamoyl)-3,4-dihydro-1H-isoquinolin-2-yl]-3-[3-[2-[1-[2-[4-[2-(2,6-dioxo-3-piperidyl)-6-fluoro-1,3-dioxo-isoindolin-5-yl]piperazin-1-yl]ethyl]-4-piperidyl]ethoxy]-2-methyl-phenyl]pyridine-2-carboxylic acid] |  | A (Ymin < 50%) |
| Cc1c(OCC[C@H](C)C2CCN(CC(=O)N3CCN(c4cc5c(cc4F)C(=O)N(C4CCC(=O)NC4=O)C5=O)CC3)CC2)cccc1-c1ccc(N2CCc3cccc(C(=O)Nc4nc5ccccc5s4)c3C2)nc1C(=O)O (stereo partly drawn) [Compound 130a, 6-[8-(1,3-benzothiazol-2-ylcarbamoyl)-3,4-dihydro-1H-isoquinolin-2-yl-3-[3-[(3S)-3-1-[2-[4-[2-(2,6-dioxo-3-piperidyl)-6-fluoro-1,3-dioxo-isoindolin-5-yl]piperazin-1-yl]-2-oxo-ethyl]-4-piperidyl]butoxy]-2-methyl-phenyl]pyridine-2-carboxylic acid] |  | B (50% ≤ Ymin < 70%) |
| Cc1c(OCCCN2CCN(c3cc4c(cc3F)C(=O)N(C3CCC(=O)NC3=O)C4=O)CC2)cccc1-c1ccc(N2CCc3cccc(C(=O)Nc4nc5ccccc5s4)c3C2)nc1C(=O)O (stereo not drawn) [Compound 101] | B (50% ≤ Ymin < 70%) |  |
| Cc1cc(OCCCC2CCN(CC(=O)N3CCN(c4cc5c(cc4F)C(=O)N(C4CCC(=O)NC4=O)C5=O)CC3)CC2)ccc1-c1ccc(N2CCc3cccc(C(=O)Nc4nc5ccccc5s4)c3C2)nc1C(=O)O (stereo not drawn) [Compound 138] | C (Ymin ≥ 70%) | B (50% ≤ Ymin < 70%) |
| Cc1c(OCCCC2CCN(CC3CCN(c4cc5c(cc4F)C(=O)N(C4CCC(=O)NC4=O)C5=O)CC3)CC2)cccc1-c1ccc(N2CCc3cccc(C(=O)Nc4nc5ccccc5s4)c3C2)nc1C(=O)O (stereo not drawn) [Compound 143, 6-[8-(1,3-benzothiazol-2-ylcarbamoyl)-3,4-dihydro-1H-isoquinolin-2-yl]-3-[3-[3-[1-[[1-[2-(2,6-dioxo-3-piperidyl)-6-fluoro-1,3-dioxo-isoindolin-5-yl]-4-piperidyl]methyl]-4-piperidyl]propoxy]-2-methyl-phenyl]pyridine-2-carboxylic acid] |  | B (50% ≤ Ymin < 70%) |
| Cc1c(OCC2CC3(CCN(CC(=O)N4CCN(c5cc6c(cc5F)C(=O)N(C5CCC(=O)NC5=O)C6=O)CC4)CC3)C2)cccc1-c1ccc(N2CCc3cccc(C(=O)Nc4nc5ccccc5s4)c3C2)nc1C(=O)O (stereo not drawn) [Compound 113, 6-[8-(1,3-benzothiazol-2-ylcarbamoyl)-3,4-dihydro-1H-isoquinolin-2-yl]-3-[3-[[7-[2-[4-[2-(2,6-dioxo-3-piperidyl)-6-fluoro-1,3-dioxo-isoindolin-5-yl]piperazin-1-yl]-2-oxo-ethyl]-7-azaspiro[3.5]nonan-2-yl]methoxy]-2-methyl-phenyl]pyridine-2-carboxylic acid] | B (50% ≤ Ymin < 70%) | B (50% ≤ Ymin < 70%) |
